# Measured values from patent publication EP1631829B1, “METHOD AND APPARATUS FOR CHARACTERIZATION OF INTERACTIONS” (GE Healthcare Bio-Sciences AB, priority 2003, dated 2004).
# Molecular target: T1, HSA (Homo sapiens, UniProt P02768)
# T1 construct: purchased Sigma A 3782
# Assay: two-sample (dual) gradient pulse injection SPR assay, site availability of drugs binding to HSA
# Conditions: digitoxin and warfarin, 50 µM each, added individual responses vs mixture, 25 °C
# T1 sequence (P02768 25-609): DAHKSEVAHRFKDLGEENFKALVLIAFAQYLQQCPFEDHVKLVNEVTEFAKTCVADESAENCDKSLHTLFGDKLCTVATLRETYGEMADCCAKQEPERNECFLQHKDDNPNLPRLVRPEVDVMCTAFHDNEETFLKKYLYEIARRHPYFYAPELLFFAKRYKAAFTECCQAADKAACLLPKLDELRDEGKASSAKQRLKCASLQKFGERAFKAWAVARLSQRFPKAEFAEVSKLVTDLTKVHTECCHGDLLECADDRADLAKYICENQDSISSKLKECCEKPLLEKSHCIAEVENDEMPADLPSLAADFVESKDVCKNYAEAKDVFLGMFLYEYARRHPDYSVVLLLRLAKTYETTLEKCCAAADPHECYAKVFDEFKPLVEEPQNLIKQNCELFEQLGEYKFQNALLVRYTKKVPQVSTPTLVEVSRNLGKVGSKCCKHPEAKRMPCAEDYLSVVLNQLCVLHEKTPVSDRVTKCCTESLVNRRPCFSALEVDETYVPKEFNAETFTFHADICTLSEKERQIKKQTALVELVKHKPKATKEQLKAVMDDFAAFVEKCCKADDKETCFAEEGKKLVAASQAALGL
compound,measurement,value
"C[C@H]1O[C@@H](O[C@H]2[C@@H](O)C[C@H](O[C@H]3[C@@H](O)C[C@H](O[C@H]4CC[C@@]5(C)[C@H](CC[C@@H]6[C@@H]5CC[C@]5(C)[C@@H](C7=CC(=O)OC7)CC[C@]65O)C4)O[C@@H]3C)O[C@@H]2C)C[C@H](O)[C@@H]1O [Digitoxin, digitoxin]",binding site relation on HSA,non-competitive binders
